Experimental data reported in patent US20180194762A1 (Pharmacyclics LLC, priority 2017, published 2018).
Where two headings read alike, the source gives them in different places.

How the values were obtained:
[1] = target: T1, Btk (Homo sapiens, UniProt Q06187); test: Btk in vitro inhibitory activity (one of Method A TR-FRET, Method B electrophoretic mobility shift, Method C radiometric filter binding); format: biochemical
T1 construct: purified from insect cells as a full-length construct containing a N-terminal 6X-His tag; His6 (N); made in house; host or cells: insect cells (Method C)
T1 sequence (Q06187 whole entry): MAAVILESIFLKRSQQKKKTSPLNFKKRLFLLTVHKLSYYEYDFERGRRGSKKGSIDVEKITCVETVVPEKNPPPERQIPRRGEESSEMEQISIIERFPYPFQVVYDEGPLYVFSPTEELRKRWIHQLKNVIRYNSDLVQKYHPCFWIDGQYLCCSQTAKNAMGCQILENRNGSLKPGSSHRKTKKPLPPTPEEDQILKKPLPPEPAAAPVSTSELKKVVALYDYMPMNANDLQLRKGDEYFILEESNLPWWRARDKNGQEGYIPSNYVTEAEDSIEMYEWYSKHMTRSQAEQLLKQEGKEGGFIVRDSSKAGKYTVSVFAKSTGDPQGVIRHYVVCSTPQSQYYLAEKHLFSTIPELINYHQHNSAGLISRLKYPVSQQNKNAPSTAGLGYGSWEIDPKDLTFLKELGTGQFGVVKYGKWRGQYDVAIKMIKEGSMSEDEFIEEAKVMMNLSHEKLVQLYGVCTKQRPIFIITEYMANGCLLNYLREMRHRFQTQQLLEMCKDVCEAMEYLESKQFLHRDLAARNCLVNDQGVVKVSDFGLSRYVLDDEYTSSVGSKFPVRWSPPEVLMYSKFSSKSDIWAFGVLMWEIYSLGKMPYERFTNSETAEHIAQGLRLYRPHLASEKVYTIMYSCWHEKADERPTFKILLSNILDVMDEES
Procedure: Example 62a: Btk In Vitro Inhibitory Activity (Method A)
Btk kinase activity is determined using a time-resolved fluorescence resonance energy transfer (TR-FRET) methodology. Measurements are performed in a reaction volume of 50 μL using 96-well assay plates. […] The reaction is quenched by the addition of 1.2 equivalents of EDTA (relative to divalent cation) in 25 μL of 1× Lance buffer (Perkin-Elmer). Streptavidin-APC (Perkin-Elmer) and Eu-labeled p-Tyr100 antibody (Perkin-Elmer) in 1× Lance buffer are added in a 25 μL volume to give final concentrations of 100 nM and 2.5 nM, respectively, and the mixture is allowed to incubate for one hour. The TR-FRET signal is measured on a multimode plate reader with an excitation wavelength (λEx) of 330 nm and detection wavelengths (λEm) of 615 and 665 nm. Activity is determined by the ratio of the fluorescence at 665 nm to that at 615 nm. For each compound, enzyme activity is measured at various concentrations of compound. Negative control reactions are performed in the absence of inhibitor in replicates of six, and two no-enzyme controls are used to determine baseline fluorescence levels. Inhibition constants, Ki(app), were obtained using the program BatchKi (Kuzmic et al. (2000), Anal. Biochem. 286:45-50). IC50s are obtained according to the equation:
IC50={Ki(app)/(1+[ATP]/Km^ATP)}+[E]total/2;
For all kinases, [ATP]=Km^ATP, [Btk]total=0.5 nM and [Lck]total=6 nM.
Example 62b: Btk In Vitro Inhibitory Activity (Method B)
Kinase activity is measured in vitro using electrophoretic mobility shift assay. The kinase reactions are assembled in a total volume of 25 μL in 384 well plates. The reactions comprise: BTK enzyme (1 nM, N-terminal His6-tagged, recombinant, full-length, human BTK purified from baculovirus Sf21 insect cell system, 293HEK, or other suitable source), inhibitor, ATP, fluorescently labeled peptide substrate (1 μM, FAM-GEEPLYWSFPAKKK-NH2) in a reaction buffer composed of 100 mM HEPES, pH7.5, 5 mM MgCl2 1 mM DTT, 0.1% bovine serum albumin, 0.01% Triton X-100, and 1% DMSO. The reaction is incubated and is quenched by the addition of termination buffer (100 mM HEPES, pH 7.5, 0.01% Triton X-100, 30 mM EDTA). The terminated reactions are analyzed using a 12 channel LabChip® 3000 microfluidic detection instrument (Caliper Life Sciences). The enzymatic phosphorylation of the peptide results in a change in net charge, enabling electrophoretic separation of product from substrate peptide. As substrate and product peptides are separated, two peaks of fluorescence are observed. Change in the relative fluorescence intensity of the substrate and product peaks is the parameter measured, reflecting enzyme activity. In the presence of an inhibitor, the ratio between product and substrate is altered: the signal of the product decreases, while the signal of the substrate increases.
Activity in each sample is determined as the product to sum ratio (PSR):P/(S+P), where P is the peak height of the product peptide and S is the peak height of the substrate peptide. For each compound, enzyme activity is measured at various concentrations (12 concentrations of compound spaced by 3× dilution intervals). Negative control samples (0%—inhibition in the absence of inhibitor) and positive control samples (100%—inhibition, in the presence of 20 mM EDTA) are assembled in replicates of four and are used to calculate %—inhibition values for each inhibitor at each concentration. Percent inhibition (Pinh) is determined using following equation:
Pinh=(PSR0%−PSRinh)/(PSR0%−PSR100%)*100, where PSRinh is the product sum ratio in the presence of inhibitor, PSR0% is the average product sum ration in the absence of inhibitor and PSR100% is the average product sum ratio in 100%—inhibition control samples.
The IC50 values of inhibitors are determined by 4 parameter sigmoidal dose-response model fitting of the inhibition curves (Pinh versus inhibitor concentration) using XLfit 4 software. […]

[2] = target: T2, TEC (Homo sapiens, UniProt P42680); test: Inhibition of a panel of kinases (in vitro HotSpot kinase assay, 33P-ATP, 1 μM ATP); format: biochemical; details: for IC50: HotSpot kinase assay, 1 μM ATP; for TEC/Btk: ratio of TEC IC50 to Btk IC50 (selectivity)
T2 sequence (P42680 1-631): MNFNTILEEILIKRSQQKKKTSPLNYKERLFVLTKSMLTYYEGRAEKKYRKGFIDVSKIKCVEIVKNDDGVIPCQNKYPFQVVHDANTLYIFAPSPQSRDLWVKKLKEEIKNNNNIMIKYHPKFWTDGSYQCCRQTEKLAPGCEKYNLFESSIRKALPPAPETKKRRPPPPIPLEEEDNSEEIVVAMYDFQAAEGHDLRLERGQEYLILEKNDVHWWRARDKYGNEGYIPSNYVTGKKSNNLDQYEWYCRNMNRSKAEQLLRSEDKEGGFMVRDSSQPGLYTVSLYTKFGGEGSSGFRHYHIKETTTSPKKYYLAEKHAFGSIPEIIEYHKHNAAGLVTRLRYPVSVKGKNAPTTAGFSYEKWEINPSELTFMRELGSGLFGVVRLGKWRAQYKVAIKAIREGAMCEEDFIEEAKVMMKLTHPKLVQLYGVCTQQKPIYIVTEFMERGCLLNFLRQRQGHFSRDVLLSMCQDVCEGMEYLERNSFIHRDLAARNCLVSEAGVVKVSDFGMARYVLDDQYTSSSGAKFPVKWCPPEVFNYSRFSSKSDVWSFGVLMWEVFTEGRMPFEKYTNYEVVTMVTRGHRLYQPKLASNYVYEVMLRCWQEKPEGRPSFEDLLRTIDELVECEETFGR
Procedure: Example 63: Inhibition of a Panel of Kinases The degree of inhibition of a panel of kinases is determined using the in vitro HotSpot kinase assay (purified enzymes, ^33P-ATP, an appropriate substrate and 1 μM ATP).

[3] = wild-type Btk, read-out: Btk-WT IC50

| IC50 [1, 3] [nM] | IC50 [2] [nM] | TEC/Btk [2] | IC50 ([1]; method is one of A, B or C, not stated which, read-out: IC50 values against Btk) [nM] | SMILES |
| --- | --- | --- | --- | --- |
| 129 | 7930 | 61 |  | C[C@@H]1[C@H](Nc2n[nH]c3nccc(-c4ccc(CNC(=O)c5noc(C(C)(C)C)n5)c(F)c4)c23)CCCN1C(=O)N1CCCC1 [Example 136, 5-tert-butyl-N-{[2-fluoro-4-(3-{[(2R,3R)-2-methyl-1-(pyrrolidine-1-carbonyl)piperidin-3-yl]amino}-1H-pyraozlo[3,4-b]pyridin-4-yl)phenyl]methyl}-1,2,4-oxadiazole-3-carboxamide] |
| 879 |  | 11 |  | CC(C)(C)c1ccc(C(=O)NCc2ccc(-c3ccnc4[nH]nc(N[C@H]5CC[C@H](O)CC5)c34)cc2F)cc1 [Compound 12, 4-tert-butyl-N-{[2-fluoro-4-(3-{[(1r,4r)-4-hydroxycyclohexyl]amino}-1H-pyrazolo[3,4-b]pyridin-4-yl)phenyl]methyl}benzamide] |
| > 10000 | > 10000 |  |  | CCc1nc(C(=O)NCc2ccc(-c3ccnc4[nH]nc(N[C@@H]5CCNC5)c34)cc2F)no1 [Example 54] |
| 50.5 | 3900 |  |  | CC(=O)N[C@@H]1CCN(c2n[nH]c3nccc(-c4ccc(CNC(=O)c5ccc(C(C)(C)O)cc5F)c(F)c4)c23)C1 [Example 423, N-[(4-{3-[(3R)-3-acetamidopyrrolidin-1-yl]-1H-pyrazolo[3,4-b]pyridin-4-yl}-2-fluorophenyl)methyl]-2-fluoro-4-(2-hydroxypropan-2-yl)benzamide] |
| 44.2 | 6260 | 142 |  | CC(C)(C)c1cc(C(=O)NCc2ccc(-c3ccnc4[nH]nc(N[C@H]5CC[C@H](O)CC5)c34)cc2F)no1 [Compound 27, 5-tert-butyl-N-{[2-fluoro-4-(3-{[(1r,4r)-4-hydroxycyclohexyl]amino}-1H-pyrazolo[3,4-b]pyridin-4-yl)phenyl]methyl}-1,2-oxazole-3-carboxamide] |
| 21.2 | 4170 | 197 |  | C[C@@H]1[C@H](Nc2n[nH]c3nccc(-c4ccc(CNC(=O)c5noc(C(C)(C)C)n5)c(F)c4)c23)CCCN1CC#N [Example 142, 5-tert-butyl-N-{[4-(3-{[(2R,3R)-1-(cyanomethyl)-2-methylpiperidin-3-yl]amino}-1H-pyrazolo[3,4-b]pyridin-4-yl)-2-fluorophenyl]methyl}-1,2,4-oxadiazole-3-carboxamide] |
| > 10000 | 9640 |  |  | C[C@H](NC(=O)c1noc(C(C)(C)C)n1)c1ccc(-c2ccnc3[nH]nc(N[C@@H]4CCN(C=O)C4)c23)cc1 [Example 96, 5-tert-butyl-N-[(1S)-1-[4-(3-{[(3R)-1-formylpyrrolidin-3-yl]amino}-1H-pyrazolo[3,4-b]pyridin-4-yl)phenyl]ethyl]-1,2,4-oxadiazole-3-carboxamide] |
| 41.9 |  |  |  | C[C@H](NC(=O)c1noc(C(C)(C)C)n1)c1ccc(-c2ccnc3[nH]nc(N[C@@H]4CCN(C(=O)N(C)C)C4)c23)cc1F [Example 291, 5-tert-butyl-N-{(1S)-1-[4-(3-{[(3R)-1-(dimethylcarbamoyl)pyrroli-din-3-yl]amino}-1H-pyrazolo[3,4-b]pyridin-4-yl)-2-fluorophenyl]ethyl}-1,2,4-oxadiazole-3-carboxamide] |
| 145 |  |  |  | CC(C)(C)c1noc(C(=O)NCc2ccc(-c3ccnc4[nH]nc(N5CCCC5=O)c34)cc2F)n1 [Example 245, 3-tert-butyl-N-({2-fluoro-4-[3-(2-oxopyrrolidin-1-yl)-1H-pyrazolo[3,4-b]pyridin-4-yl]phenyl}methyl)-1,2,4-oxadiazole-5-carboxamide] |
|  |  |  | < 10 | C=CC(=O)N1CC[C@@H](Nc2n[nH]c3nccc(-c4ccc(CNC(=O)c5ccc(C(C)(C)C)cc5)c(F)c4)c23)C1 [Example 6, 4-tert-butyl-N-{[2-fluoro-4-(3-{[(3R)-1-(prop-2-enoyl)pyrrolidin-3-yl]amino}-1H-pyrazolo[3,4-b]pyridin-4-yl)phenyl]methyl}benzamide] |
| 183 |  |  |  | CN1CCN(c2n[nH]c3nccc(-c4ccc(CNC(=O)c5nc(C(C)(C)C)no5)c(F)c4)c23)C(=O)C1=O [Example 381, 3-tert-butyl-N-({2-fluoro-4-[3-(4-methyl-2,3-dioxopiperazin-1-yl)-1H-pyrazolo[3,4-b]pyridin-4-yl]phenyl}methyl)-1,2,4-oxadiazole-5-carboxamide] |
| 81.4 |  |  |  | C[C@H](NC(=O)c1noc(C(C)(C)C)n1)c1ccc(-c2ccnc3[nH]nc(N[C@@H]4CCNC4)c23)cc1F [Example 290, 5-tert-butyl-N-{(1S)-1-[2-fluoro-4-(3-{[(3R)-pyrrolidin-3-yl]amino}-1H-pyrazolo[3,4-b]pyridin-4-yl)phenyl]ethyl}-1,2,4-oxadiazole-3-carboxamide] |
| 531 |  |  |  | CC(C)Cc1cc(C(=O)NCc2ccc(-c3ccnc4[nH]nc(N[C@@H]5CCCN(C(=O)N(C)C)[C@@H]5C)c34)cc2F)no1 [Example 306, (2R,3R)-3-({4-[3-fluoro-4-({[5-(2-methylpropyl)-1,2-oxazole-3-carbonyl]amino}methyl)phenyl]-1H-pyrazolo[3,4-b]pyridin-3-yl}amino)-N,N,2-trimethylpiperidine-1-carboxamide] |
| 509 |  |  |  | CN(C)C(=O)N1CC[C@@H](Nc2n[nH]c3nccc(-c4ccc(CNC(=O)c5coc(C6CCC6)n5)c(F)c4)c23)C1 [Example 328, 2-cyclobutyl-N-{[4-(3-{[(3R)-1-(dimethylcarbamoyl)pyrroli-din-3-yl]amino}-1H-pyrazolo[3,4-b]pyridin-4-yl)-2-fluorophenyl]methyl}-1,3-oxazole-4-carboxamide] |
| 156 |  |  |  | C[C@H]1CC[C@@H](N)CN1c1n[nH]c2nccc(-c3ccc(CNC(=O)c4cc(C(C)(C)C)on4)c(F)c3)c12 [Example 322, N-[(4-{3-[(2S,5R)-5-amino-2-methylpiperidin-1-yl]-1H-pyrazolo[3,4-b]pyridin-4-yl}-2-fluorophenyl)methyl]-5-tert-butyl-1,2-oxazole-3-carboxamide] |
